{
  "source": "patent US20100183714A1",
  "about": "“GASTRORESISTANT PHARMACEUTICAL DOSAGE FORM COMPRISING N-(2-(2- PHTHALIMIDOETHOXY)-ACETYL)-L-ALANYL-D-GLUTAMIC ACID (LK-423)” (priority 2004, published 2010)",
  "test_system": "ulcerative changes of the ileum, caecum and colon",
  "assay": "Antiulcerative action in vivo, DSS-induced ulcerative changes in rats",
  "conditions": "75 mg/kg orally",
  "excerpt": "Ulcerative changes of ileum, caecum and colon in rats were developed in five days by drinking water containing 2% of sodium dextran sulphate (DSS).\nDSS is the compound which after oral administration in an aqueous solution induces inflammatory and ulcerative changes in the mucosa of ileum, caecum and colon in animals.\nThe animals were randomly assigned to the individual groups.\nFrom experiment day 6 onward the animals were drinking water with 1% DSS. The animals in Group A received the pure compound LK 423 in a dose of 75 mg/kg. The pure compound LK 423 was prepared as suspension in 1% gelatin (Gelatin GE0020, Scharlau) and was given orally via the tube in a volume of 1 ml.\nIn Group B the animals received the microcapsules comprising LK 423 in a dose of 75 mg/kg (as prepared in Example 1). The microcapsules comprising LK 423 were given orally via the tube dispersed in 1.5 to 2 ml 1% of gelatin.\nAt baseline the rats had body weight from 220 to 250 g. […] At baseline and on days 6 and 12 the body weight was recorded. For determination of the hematology parameters 1.5 ml blood samples were taken from the periorbital sinus at baseline and on day 5 of the experiment and from the abdominal aorta on day 12. The erythrocyte count and hemoglobin and hematocrit values were performed in the clinical laboratory of the Institute for Health Protection of Ruminants, Faculty of Veterinary Science. […] Throughout the experiment survival of the animals, diarrhea and occurrence of blood in the feces or the intensity of bleeding were also observed. On day 12 the animals were sacrificed under deep ether anesthesia and post-mortem examination was performed. Macroscopic changes in the ileum, caecum and in the colon and the intensity of bleeding were observed.\nAt autopsy fragments of the intestine were taken from the animals and fixed in 10% formaldehyde; paraffin tissue sections were prepared and stained with hematoxylin and eosin. Pathohistological diagnosis was then performed.\nIn all groups (both control groups, group A and group B) (Table 3) the tissue damage and a reaction of the surrounding tissue to the damage (level of regeneration) as well as accompanying parameters of the scope of bleeding in the mucosa, hypertrophy of the mucosa with glandular hyperplasia and the degree of epithelialization of the damage surface were assessed. The criteria were as follows:\nThe Scope of Acute Bleeding with Respect to the Tissue and to the Diameter of the Field of View at 40-Fold Magnification (4 mm): • No bleeding—0 • Small bleeding in the propria and submucosa, with a diameter less than half of the field of view—1 • Moderate bleeding in the propria and submucosa, with a diameter to one half of the field of view—2 • Very extensive bleeding in the propria and submucosa with a diameter greater than half of the field of view—3 • Very extensive bleeding in the propria, submucosa, around the vessels in the tunica muscularis, tunica serosa, and in the supporting tissue—4 Regressive Process—Damage with a Defense Reaction of the Tissue: • No cellular response (no reaction) or the regressive process was no longer active—0 • Moderate cellular infiltration (monocytes, granulocytes, macrophage, histocytes) with karyorrhesis and pyknosis in the mucosa and the submucosa—1 • Severe diffuse cellular infiltration (monocytes, granulocytes, macrophage, histocytes) with karyorrhesis and pyknosis in the mucosa and the submucos—2 • Cellular infiltration (monocytes, granulocytes, macrophage, histocytes) in the demarcation line around the injury—3",
  "data": [
    {"molecule": "C[C@H](NC(=O)COCCN1C(=O)c2ccccc2C1=O)C(=O)N[C@H](CCC(=O)O)C(=O)O", "note": "[LK 423, N-(2-(2-phthalimidoethoxy)-acetyl)-L-alanyl-D-glutamic acid]", "values": [
      {"measurement": "Blood in the feces", "value": "+"},
      {"measurement": "Mortality", "value": 33, "unit": "%"},
      {"measurement": "Percent of bleeding animals, Caecum", "value": 17},
      {"measurement": "Percent of bleeding animals, Colon", "value": 17},
      {"measurement": "Percent of bleeding animals, Ileum", "value": 17},
      {"measurement": "Difference of hematology values from day 0 to 12, Erythrocytes", "setting": "decrease from baseline", "value": "1.25 × 10^12/l"},
      {"measurement": "Difference of hematology values from day 0 to 12, Hematocrit", "setting": "decrease from baseline", "value": 6.74, "unit": "%"},
      {"measurement": "Difference of hematology values from day 0 to 12, Hemoglobin", "setting": "decrease from baseline", "value": 17.2, "unit": "g/l"},
      {"measurement": "Level of bleeding in the mucosa", "setting": "histological score", "value": 0.6},
      {"measurement": "Cellular process in sacrificed animals, Epithelialization", "setting": "histological score, day 12", "value": 2.37},
      {"measurement": "Cellular process in sacrificed animals, Hypertrophy of the mucosa", "setting": "histological score, day 12", "value": 2.75},
      {"measurement": "Cellular process in sacrificed animals, Level of damage", "setting": "histological score, day 12", "value": 1.75},
      {"measurement": "Cellular process in sacrificed animals, Level of regeneration", "setting": "histological score, day 12", "value": 2.37},
      {"measurement": "regeneration of damages of the intestinal mucosa compared with both control groups", "setting": "pathohistology", "value": "more rapid regeneration"}
    ]}
  ]
}
